Results reported in ChEMBL document CHEMBL4342475, “Structure-Bioactivity Relationships of Lapatinib Derived Analogs against Schistosoma mansoni” (ACS Med Chem Lett, 2020).
Converted amounts (≈) assume the structure as drawn. The source made the active and inactive calls. No cut-off for these calls is given here.

Assays:
Schistosoma mansoni [1] = assay: Antiparasitic activity against Schistosoma mansoni infected in Hamster assessed as severity score at 10 uM incubated for 1 hr; type: functional, organism-based
Schistosoma mansoni [2] = assay: Antiparasitic activity against Schistosoma mansoni infected in Hamster assessed as severity score at 10 uM incubated for 5 hrs; type: functional, organism-based
Schistosoma mansoni [3] = assay: Antiparasitic activity against Schistosoma mansoni infected in Hamster assessed as severity score at 10 uM incubated for 24 hrs; type: functional, organism-based
Schistosoma mansoni [4] = assay: Antiparasitic activity against Schistosoma mansoni infected in Hamster assessed as severity score at 10 uM incubated for 48 hrs; type: functional, organism-based
[5] = Cytotoxicity against human HepG2 cells assessed as reduction in cell viability 48 hrs by MTT assay; type: cell-based; conditions: read-out: TC50
[6] = Aqueous solubility of compound incubated for 24 hrs by LC-MS/MS analysis; type: physicochemical; conditions: for solubility: buffer, 24 h
[7] = Protein binding in human plasma at 1 uM by LC-MS/MS analysis; type: ADME, cell-free
[8] = Metabolic stability in human liver microsomes assessed as intrinsic clearance by LC-MS/MS analysis; type: ADME, Microsome

| solubility [6] | PPB [7] | intrinsic clearance [8] | solubility at 24 h ([6]; aqueous) | SMILES | Activity (Schistosoma mansoni [1]) | Activity (Schistosoma mansoni [2]) | Activity (Schistosoma mansoni [3]) | Activity (Schistosoma mansoni [4]) | CC50 at 48 h [5] |
| --- | --- | --- | --- | --- | --- | --- | --- | --- | --- |
| 465 µM (≈ 192 µg/mL) | 76% | 41 µL/min/mg |  | Cc1c(-c2cnc(N3CCCNCC3)nc2)ccc2c(Nc3cnccn3)ccnc12 | inactive | inactive | Active | Active | > 3.7 µM |
| 1000 µM (≈ 413 µg/mL) | 70% | 13 µL/min/mg |  | Cc1cc2c(Nc3cnccn3)ccnc2cc1-c1cnc(N2CCCNCC2)nc1 | inactive | inactive | inactive | inactive | 13 µM |
| 450 µM (≈ 205 µg/mL) | 94% | 300 µL/min/mg |  | CCCN1CCCN(c2ncc(-c3ccc4c(Nc5cnccn5)ccnc4c3C)cn2)CC1 | inactive | inactive | Active | Active | 12 µM |
| 860 µM (≈ 367 µg/mL) | 82% | 120 µL/min/mg |  | Cc1c(-c2cnc(N3CCCN(C)CC3)nc2)ccc2c(Nc3cnccn3)ccnc12 | inactive | inactive | inactive | inactive |  |
|  |  | 130 µL/min/mg | […] | Cc1cc2c(Nc3cnccn3)ccnc2cc1-c1cnc(N2CCN(C)CC2)nc1 | inactive |  | Active | Active |  |

The remaining lines, values behind:

| SMILES | solubility [6] | PPB [7] | intrinsic clearance [8] | solubility at 24 h ([6]; aqueous) | Activity (Schistosoma mansoni [1]) | Activity (Schistosoma mansoni [2]) | Activity (Schistosoma mansoni [3]) | Activity (Schistosoma mansoni [4]) | CC50 at 48 h [5] |
| --- | --- | --- | --- | --- | --- | --- | --- | --- | --- |
| CCCN1CCCN(c2ncc(-c3cc4nccc(Nc5cnccn5)c4cc3C)cn2)CC1 | 480 µM (≈ 218 µg/mL) | 88% | 300 µL/min/mg |  |  | inactive |  | inactive | 7.6 µM |
| CCN1CCCN(c2ncc(-c3cc4nccc(Nc5cnccn5)c4cc3C)cn2)CC1 | 790 µM (≈ 348 µg/mL) | 84% | 300 µL/min/mg |  |  | Active | Active | Active | 4.7 µM |
| Cc1cc2c(Nc3cnccn3)ccnc2cc1-c1cnc(N2CCCN(C)CC2)nc1 | 670 µM (≈ 286 µg/mL) | 82% | 260 µL/min/mg |  | Active | Active | Active | Active | 7.6 µM |
| CCN1CCCN(c2ncc(-c3ccc4c(Nc5cnccn5)ccnc4c3C)cn2)CC1 | 580 µM (≈ 256 µg/mL) | 88% | 160 µL/min/mg |  | inactive | inactive | inactive | inactive | 16 µM |
